# Assay: method code SF-HPLC, from DOI: 10.1021/jf960844v
row,logP,SMILES
1,3.73,C=C(Br)CON=C(C)c1cccc(Oc2nc(OC)cc(OC)n2)c1C(=O)OC
2,2.31,COC(=O)c1c(Oc2nc(OC)cc(OC)n2)cccc1C(C)=NOCCF
3,3.59,CCCO/N=C(\C)c1cccc(Oc2nc(OC)cc(OC)n2)c1C(=O)OC
4,4.11,CCCCON=C(C)c1cccc(Oc2nc(OC)cc(OC)n2)c1C(=O)OC
5,3.39,COC(=O)c1c(Oc2nc(OC)cc(OC)n2)cccc1C(C)=NOCC(F)(F)F
6,1.68,COC(=O)c1c(Oc2nc(OC)cc(OC)n2)cccc1C(C)=NOC(C)=O
7,2.96,CCO/N=C(\C)c1cccc(Oc2nc(OC)cc(OC)n2)c1C(=O)OC
8,1.93,COC(=O)c1c(Oc2nc(OC)cc(OC)n2)cccc1C(C)=NO
9,3.23,COC(=O)c1c(Oc2nc(OC)cc(OC)n2)cccc1/C(C)=N/OCCCl
10,4.23,COC(=O)c1c(Oc2nc(OC)cc(OC)n2)cccc1C(C)=NOCC=C(Cl)Cl
11,3.13,C=CCO/N=C(\C)c1cccc(Oc2nc(OC)cc(OC)n2)c1C(=O)OC
12,4.01,COC(=O)c1c(Oc2nc(OC)cc(OC)n2)cccc1C(C)=NOCc1ccccc1
13,3.63,C=C(Cl)CON=C(C)c1cccc(Oc2nc(OC)cc(OC)n2)c1C(=O)OC

row,SMILES,logP
1,CO/N=C(\C)c1cccc(Oc2nc(OC)cc(OC)n2)c1C(=O)OC,2.57
